# Assay results published in US9718790B2, “Triazine derivative and pharmaceutical composition having an analgesic activity comprising the same” (SHIONOGI & CO., LTD., priority 2010, dated 2017).
# Values joined by “and” are separate entries in the source; they are usually repeats but may differ in a detail not shown here. Equal entries are not always repeated.
# Target: human P2X3 receptor (Homo sapiens (Human), UniProt P56373)
# Test: Evaluation of human P2X3 receptor inhibitory activity (Fluo-3 calcium fluorescence, FDSS 3000, ATP stimulation);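 note: stimulus was 50 nM ATP with fluorescence followed for 3 min, and the response per well was peak post-ATP fluorescence divided by the reading at measurement start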
# Type: cell-based
# Conditions: C6BU-1 cells stably expressing human P2X3 receptor
# human P2X3 receptor, sequence (P56373 whole entry): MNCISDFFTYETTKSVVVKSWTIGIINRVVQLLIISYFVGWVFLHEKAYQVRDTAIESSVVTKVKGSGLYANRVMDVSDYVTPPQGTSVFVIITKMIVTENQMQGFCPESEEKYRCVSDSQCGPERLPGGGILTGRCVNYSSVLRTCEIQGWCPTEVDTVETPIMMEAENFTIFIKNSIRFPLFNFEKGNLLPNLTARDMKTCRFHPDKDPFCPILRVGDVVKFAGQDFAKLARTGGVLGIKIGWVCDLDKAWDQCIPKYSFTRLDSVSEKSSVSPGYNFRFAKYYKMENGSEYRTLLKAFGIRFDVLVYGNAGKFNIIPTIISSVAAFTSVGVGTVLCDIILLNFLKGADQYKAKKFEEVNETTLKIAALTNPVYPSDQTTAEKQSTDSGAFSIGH
row,SMILES,IC50 [nM]
1,CC(C)Oc1ccc(/N=c2\[nH]c(=O)n(Cc3n[nH]c(=O)o3)c(=O)n2Cc2ccc(Cl)cc2)cc1F [Compound I-0643],54
2,CCn1c(=O)[nH]/c(=N\c2ccc(Oc3cccc(C(=O)O)n3)cc2)n(Cc2ccc(Cl)cc2)c1=O [Compound I-2095],5
3,COC(=O)[C@H](C)[C@H](C)n1c(=O)[nH]/c(=N\c2ccc(OC3CCC3)c(C)c2)n(Cc2ccc(Cl)cc2)c1=O [Compound I-1403],50
4,Cc1nc2ccc(/N=c3\[nH]c(=O)n(CCCC(=O)O)c(=O)n3Cc3ccc(Cl)cc3)cc2s1 [Compound I-2143],23
5,COC(=O)[C@H](C)[C@H](C)n1c(=O)[nH]/c(=N\c2ccc(CC(C)C)c(OC)c2)n(Cc2ccc(C)cc2)c1=O [Compound I-1364],43
6,Cc1ccc(Oc2ccc(/N=c3\[nH]c(=O)n(CCC(=O)O)c(=O)n3Cc3ccc(Cl)cc3)cc2)c(C)n1 [Compound I-1413],72
7,CC(C)Oc1ccc(/N=c2\[nH]c(=O)n(CC(=O)NC3CCOCC3)c(=O)n2Cc2ccc(Cl)cc2)cc1Cl [Compound I-0663],5
8,COC(=O)[C@@H](C)Cn1c(=O)[nH]/c(=N\c2ccc(/C=C/C3CC3)cc2)n(Cc2ccc(C)cc2)c1=O [Compound I-1193],40
9,COC(=O)[C@H](C)[C@H](C)n1c(=O)[nH]/c(=N\c2ccc3oc(C)cc3c2)n(Cc2ccc(C)cc2)c1=O [Compound I-1325],28
10,COC(=O)[C@@H](C)[C@@H](C)n1c(=O)[nH]/c(=N\c2ccc(OC(C)C)c(C)c2)n(Cc2ccc(C)cc2)c1=O [Compound I-1312],45
11,"CO/N=C(\Cn1c(=O)[nH]/c(=N\c2ccc(OC(C)C)c(F)c2)n(Cc2ccc(Cl)cc2)c1=O)C(=O)O [Compound I-0737, 1-(4-chlorobenzyl)-6-(3-fluoro-4-isopropoxyphenylimino)-3-(2-hydroxycarbonyl-2-methoxyiminoethyl)-1,3,5-triazinane-2,4-dion]",140
12,CCn1c(=O)[nH]/c(=N\c2ccc(Oc3cncc(C(N)=O)c3)cc2)n(Cc2ccc(Cl)cc2)c1=O [Compound I-1996],4
13,CCOC(=O)CCCn1c(=O)[nH]/c(=N\c2ccc(Oc3ccncc3)cc2)n(Cc2ccc(C)cc2)c1=O [Compound I-1238],2
14,CC(C)Oc1ccc(/N=c2\[nH]c(=O)n(C3C[C@H]3C(=O)O)c(=O)n2Cc2ccc(Cl)cc2)cc1F (some centres unmarked) [Compound I-0674],126
15,COC(=O)[C@@H](C)[C@@H](C)n1c(=O)[nH]/c(=N\c2ccc(OCC3CC3)cc2)n(Cc2ccc(C)cc2)c1=O [Compound I-1314],59
16,C[C@@H](Cn1c(=O)[nH]/c(=N\c2ccc(OCCO)cc2)n(Cc2ccc(Cl)cc2)c1=O)C(=O)O [Compound I-0733],287
17,NC(=O)Cn1c(=O)[nH]/c(=N\c2ccc(OCC3CC3)cc2)n(Cc2ccc(Cl)cc2)c1=O [Compound I-1940],55
18,COC(=O)c1cccc(Cn2c(=O)[nH]/c(=N\c3ccc(OC(C)C)c(C)c3)n(Cc3ccc(Cl)cc3)c2=O)n1 [Compound I-0781],9
19,Cc1ccc(Cn2c(=O)n([C@@H](C)[C@@H](C)C(=O)O)c(=O)[nH]/c2=N\c2ccc3oc(C)cc3c2)cc1 [Compound I-1353],41
20,CC[C@H](CC(=O)OC)n1c(=O)[nH]/c(=N\c2ccc(OC(C)C)c(C)c2)n(Cc2ccc(Cl)cc2)c1=O [Compound I-0783],65
21,CCCOc1ccc(/N=c2\[nH]c(=O)n(C[C@H](C)C(=O)OC)c(=O)n2Cc2ccc(Cl)cc2)cc1 [Compound I-0619],14
22,COC(=O)[C@@H](C)[C@@H](C)n1c(=O)[nH]/c(=N\c2ccc(OC(C)C)cc2)n(Cc2ccc(C)cc2)c1=O [Compound I-1310],66
23,Cc1ccc(Cn2c(=O)n(C[C@H](C)C(=O)O)c(=O)[nH]/c2=N\c2ccc3oc(C)cc3c2)cc1 [Compound I-0681],49

# Same assay, conditions: C6BU-1 cells stably expressing human P2X3 receptor, Fluo-3 fluorescence, FDSS 3000
row,SMILES,IC50
1,CCc1oc2ccc(/N=c3\[nH]c(=O)n(CCCNC(C)=O)c(=O)n3Cc3ccc(Cl)cc3)cc2c1C [Compound I-1568],10 nM
2,O=C(O)CCn1c(=O)[nH]/c(=N\c2ccc(Oc3ccc(F)cc3)cc2)n(Cc2ccc(Cl)cc2)c1=O [Compound I-1877],36 nM
3,C[C@@H](C(=O)O)[C@H](C)n1c(=O)[nH]/c(=N\c2ccc3c(c2)sc(=O)n3CC(F)(F)F)n(Cc2ccc(Cl)cc2)c1=O [Compound I-1780],932 nM
4,Cc1ccc(Cn2c(=O)n(C[C@H](C)C(=O)O)c(=O)[nH]/c2=N\c2ccc(OCCC(C)C)cc2)cc1 [Compound I-1063],152 nM
5,Cc1ccc(Cn2c(=O)n([C@@H](C)[C@@H](C)C(=O)O)c(=O)[nH]/c2=N\c2ccc(OC(C)C)c(F)c2)cc1 [Compound I-0974],29 nM
6,CC[C@@H](C)Oc1ccc(/N=c2\[nH]c(=O)n([C@H](C)CC(=O)O)c(=O)n2Cc2ccc(C)cc2)cc1 [Compound I-0936],65 nM
7,CNC(=O)Cn1c(=O)[nH]/c(=N\c2ccc(Oc3ccc(O)nc3)cc2)n(Cc2ccc(Cl)cc2)c1=O [Compound I-1901],15 nM
8,CCc1oc2ccc(/N=c3\[nH]c(=O)n(CCCC(=O)O)c(=O)n3Cc3ccc(C)cc3)cc2c1C [Compound I-1630],15 nM
9,Cc1cc(/N=c2\[nH]c(=O)n(C[C@H](C)C(=O)O)c(=O)n2Cc2ccc(Cl)cc2)ccc1CC(C)C [Compound I-0949],8 nM and 21 nM
10,Cc1ccc(Cn2c(=O)n(C[C@H](C)C(=O)O)c(=O)[nH]/c2=N\c2ccc(OC(C)C)c(Br)c2)cc1 [Compound I-0909],7 nM
11,COC(=O)[C@@H](C)Cn1c(=O)[nH]/c(=N\c2ccc(CCC3CC3)c(C)c2)n(Cc2ccc(Cl)cc2)c1=O [Compound I-1023],300 nM
12,CCOC(=O)CCn1c(=O)[nH]/c(=N\c2ccc(OC[C@@H](C)CC)cc2)n(Cc2ccc(C)cc2)c1=O [Compound I-1051],100 nM
13,CCn1c(=O)[nH]/c(=N\c2ccc3nc(C)sc3c2)n(Cc2ccc(Cl)cc2)c1=O [Compound I-1702],4 nM
14,COC(=O)CN1CCC(Cn2c(=O)[nH]/c(=N\c3ccc(OC(C)C)c(C)c3)n(Cc3ccc(Cl)cc3)c2=O)CC1 [Compound I-1638],13 nM
15,Cc1nc2ccc(/N=c3\[nH]c(=O)n(CCC(N)=O)c(=O)n3Cc3ccc(Cl)cc3)cc2s1 [Compound I-1670],7 nM
16,CCN(c1ccc(/N=c2\[nH]c(=O)n(C[C@H](C)C(=O)OC)c(=O)n2Cc2ccc(Cl)cc2)cc1)C(C)C [Compound I-0952],741 nM
17,CCOc1ccc(/N=c2\[nH]c(=O)n(C[C@@H](C)C(=O)O)c(=O)n2Cc2ccc(C)cc2)cc1Cl [Compound I-1107],43 nM
18,COC(=O)C(C)(C)Cn1c(=O)[nH]/c(=N\c2ccc3nc(C)sc3c2)n(Cc2ccc(Cl)cc2)c1=O [Compound I-1569],4 nM

# Same assay, conditions: human P2X3 receptor, Test Example 1
row,SMILES,IC50 [nM]
1,CCOC(=O)CCn1c(=O)[nH]/c(=N\c2ccc3oc(CC)c(C)c3c2)n(Cc2ccc(C)cc2)c1=O [Compound I-1504],5
2,Cc1ccc(Cn2c(=O)n(CCC(=O)O)c(=O)[nH]/c2=N\c2ccc(Oc3cc(C(=O)O)ccn3)cc2)cc1 [Compound I-2671],36
3,CC(CO)(CO)Cn1c(=O)[nH]/c(=N\c2ccc(OCC3CC3)cc2)n(Cc2ccc(Cl)cc2)c1=O [Compound I-2616],12
4,O=c1[nH]/c(=N\c2ccc(Oc3ccnc(Cl)c3)cc2)n(Cc2ccc(Cl)cc2)c(=O)n1CC(CO)CO [Compound I-2704],4
5,Cc1sc(Oc2ccc(/N=c3\[nH]c(=O)n(C)c(=O)n3Cc3ccc(Cl)cc3)cc2)nc1C(=O)O [Compound I-2451],25
6,COC(=O)c1cccc(Oc2ccc(/N=c3\[nH]c(=O)n(C)c(=O)n3Cc3ccc(Cl)cc3)cc2)n1 [Compound I-2271],36
7,NC(=O)Cn1c(=O)[nH]/c(=N\c2ccc(Oc3ccon3)c(F)c2)n(Cc2ccc(Cl)cc2)c1=O [Compound I-2586],7
8,COC(=O)[C@@H](C)Cn1c(=O)[nH]/c(=N\c2ccc(C3CC3)c(C3CC3)c2)n(Cc2ccc(C)cc2)c1=O [Compound I-1488],652
9,COC(=O)CCn1c(=O)[nH]/c(=N\c2ccc(Oc3cccc(C#N)n3)cc2)n(Cc2ccc(C)cc2)c1=O [Compound I-2633],2
10,CC1(C)OC[C@H](Cn2c(=O)[nH]/c(=N\c3ccc(Oc4cncc(F)c4)cc3)n(Cc3ccc(Cl)cc3)c2=O)O1 [Compound I-2333],3
11,CCOC(=O)Cn1c(=O)[nH]/c(=N\c2ccc(Oc3ncc(C)s3)cc2)n(Cc2ccc(Cl)cc2)c1=O [Compound I-2619],6
12,Cc1cc(/N=c2\[nH]c(=O)n([C@H]3CC[C@@H](C(=O)O)CC3)c(=O)n2Cc2ccc(Cl)cc2)ccc1OC(C)C [Compound I-0851],24
13,Cc1ccc(Cn2c(=O)n(C[C@H](C)C(=O)O)c(=O)[nH]/c2=N\c2cnc(OC3CCC3)c(C)c2)cc1 [Compound I-1482],98
14,Cn1c(=O)[nH]/c(=N\c2ccc(Oc3cnc(C(=O)O)cn3)cc2)n(Cc2ccc(Cl)cc2)c1=O [Compound I-2386],13
15,CCCOc1ccc(/N=c2\[nH]c(=O)n(C[C@H](CC)C(=O)O)c(=O)n2Cc2ccc(C)cc2)cc1 [Compound I-0885],87
16,CNC(=O)[C@@H](CCO)n1c(=O)[nH]/c(=N\c2ccc(OC(C)C)c(C)c2)n(Cc2ccc(Cl)cc2)c1=O [Compound I-0870],530
17,"CCn1c(SC)n/c(=N\c2ccc(Oc3cncc(C(=O)OC)c3)cc2)n(Cc2ccc(Cl)cc2)c1=O [Compound I-2264, 1-(4-chlorobenzyl)-3-ethyl-4-methylthio-6-[4-(5-methoxycarbonyl-3-pyridyloxy)phenylimino]-1,3,5-triazine-2-(1H)-one]",558
18,CCn1c(=O)[nH]/c(=N\c2ccc(Oc3ccc(C(=O)O)nn3)cc2)n(Cc2ccc(C)cc2)c1=O [Compound I-2383],15
19,CCOc1ccc(/N=c2\[nH]c(=O)n(CC(F)(F)C(=O)O)c(=O)n2Cc2ccc(C)cc2)cc1Cl [Compound I-0858],22
20,COC(=O)[C@@H](C)Cn1c(=O)[nH]/c(=N\c2ccc(-c3noc(C)n3)cc2)n(Cc2ccc(Cl)cc2)c1=O [Compound I-1529],26
21,CCOC(=O)CCn1c(=O)[nH]/c(=N\c2ccc(Oc3ccc(OC)nc3)cc2)n(Cc2ccc(Cl)cc2)c1=O [Compound I-1523],3
